Assay results reported in publication PMC8698672, “Selective Anticancer and Antimicrobial Metallodrugs Based on Gold(III) Dithiocarbamate Complexes” (Biomedicines, 2021).

Legend:
[1] = test system: Undifferentiated Caco-2/TC7 cell; assay: Apoptosis/necrosis, Annexin V-FITC / 7-AAD flow cytometry; assay type: cell-based, human; details: 20 μM, 24 h
Method: For the studies of apoptosis, using the detection of phosphatidylserine in the outer layer of the plasma membrane, an Annexin V-FITC Apoptosis Detection kit (Immunostep, Salamanca, Spain) was used. After incubation with the complexes, the cells were collected and transferred to flow-cytometry tubes. A negative control was prepared with untreated cells, which was used to define the basal level of apoptotic, necrotic, or dead cells. The staining with Annexin V-FITC and 7-Aminoactinomycin D (7-AAD) was performed according to the manufacturer’s recommendations. The cells were washed twice with temperate phosphate-buffered saline (PBS) and resuspended in 200 μL of 1x Annexin-binding buffer. After that, 2.5 μL Annexin V-FITC and 2.5 μL […] were added to each 50 μL of cell suspension. After incubation for 15 min at RT in the dark, 400 μL of 1× Annexin-binding buffer were added and analyzed by flow cytometry within 1 h. The signal intensity was measured using a Gallios Flow Cytometer (Beckman Coulter, Brea, CA, USA) and analyzed using the Kaluza Analysis Software (Beckman Coulter).
After obtaining great results from the cell viability studies, it was determined that only non-cytotoxic complexes on normal cells are good candidates as anticancer drugs, so complexes C1, C5, and C6 were selected for the following studies. Thus, we proceeded to elucidate the action mechanism of these three complexes to induce cell death. The most convenient cell death for anticancer drugs is apoptosis, since in this way no inflammation processes occur and it is carefully controlled. The apoptotic way is normally characterized by several morphological changes in the cell membrane, by which phosphatidylserine (PS) is exposed, moving from the inner part to the outer surface of the membrane. Thanks to this translocation, Annexin V (FITC-conjugated) can interact selectively with the PS, differentiating healthy cells from apoptotic cells. Besides, cells undergoing late apoptosis stages and necrotic cells present deep damage in the membrane that makes 7-aminoactinomycin D (7-AAD) access the nucleus. Therefore, by using flow cytometry, all different cell populations can be distinguished.
Figure 4 Undifferentiated Caco-2/TC7 cell apoptotic-state (a) and necrotic-state (b) analysis after 24 h of incubation with C1, C5, and C6 (20 µM).

Caco-2/TC7 cells = assay: Oxidative stress damage, protein carbonyl levels (DNPH); assay type: cell-based, human; details: 20 μM, 24 h
Method: Cell homogenates needed for this assay were prepared according to a previously described method. Protein oxidation was analyzed by carbonyl-level measurement as previously described. Cell homogenates were incubated with the classical carbonyl reagent 2,4-dinitrophenylhydrazine (DNPH), and protein carbonylation was measured spectrophotometrically at 375 nm. The results were calculated in nmol carbonyl groups mg^−1 protein.
According to the literature, gold complexes act as anticancer agents by the disruption of redox homeostasis. As a result, the concentration of ROS species rises and consequently, main biomolecules, such as lipids, proteins, or even DNA, can be oxidized. However, tumor cells present an overproduction of ROS species due to their high metabolism. The most common anticancer strategy is promoting a higher oxidative damage in biomolecules to trigger the apoptosis process. […] In this study, we evaluated the oxidation levels of the carbonyl groups present in proteins by the established method of 2,4-dinitrophenylhydrazine (DNPH).
Figure 6 Carbonyl levels (nmol mg^−1 protein) in Caco-2/TC7 cells treated with vehicle DMSO (control) or gold(III) complexes (24 h, 20 μM). Values are expressed as mean values ± SEM (n ≥ 6 experiments). ** p < 0.01; *** p < 0.001 vs. control.

[2] = test system: Cryptococcus neoformans (Cn); assay: Antifungal MIC assay (CO-ADD); assay type: cell-based; details: 36 h, 35 °C, inhibition ≥ 70%
Method: The antimicrobial assays were performed according to the protocols of the Community for Open Antimicrobial Drug Discovery (CO-ADD). […] All the sample preparation was done using liquid-handling robots.
The antifungal activity of all synthesized complexes was evaluated in two different fungi, Candida albicans (Ca) and Cryptococcus neoformans (Cn). Fungi strains were cultured for 3 days on yeast extract–peptone–dextrose (YPD) agar at 30 °C. A yeast suspension of 1 × 10^6 to 5 × 10^6 CFU/mL (as determined by OD530) was prepared from five colonies. The suspension was subsequently diluted and added to each well of the complex-containing plates, giving a final cell density of fungus suspension of 2.5 × 10^3 CFU/mL and a total volume of 50 μL. All plates were covered and incubated at 35 °C for 36 h without shaking. […] The absorbance was measured using a Biotek Multiflo Synergy HTX plate reader (Winooski, VT, USA). In both cases, the percentage of growth inhibition was calculated for each well, using the negative control (media only) and positive control (fungi without inhibitors) on the same plate. […] Due to a higher variance in growth and inhibition, a lower threshold was applied to the data for C. neoformans.

Caco-2 cells = assay: Cell cycle analysis, PI staining flow cytometry; assay type: cell-based, human; details: 20 μM, 24 h
Method: After incubation with the complexes, the cells were collected, washed twice with PBS, fixed in 70% ice-cold ethanol, and stored at 4 °C for 24 h. After centrifugation, cells were resuspended in PBS containing PI (50 μg/mL) and RNase A (100 μg/mL). After incubation for 30 min at RT in the dark, PI-stained cells were analyzed for DNA content in a Gallios Flow Cytometer (Beckman Coulter). […] Cell cycle distribution was determined on a linear scale. The percentage of cells in cycle phases was determined using the Kaluza Analysis Software (Beckman Coulter).
To stop the uncontrolled replication of tumor cells is still one of the main aims in the chemotherapy field; thus, arresting the tumor cell cycle in as many stages as possible is considered crucial. […] As is known, the geometry and structure of the complex have a great impact on the action mechanism of the drug, so there are examples of gold(III) complexes that alter the cell cycle at the G0/G1 phase, but also others at G2/M phase.
Figure 5 Cell population (%) in each stage of the cell cycle obtained by flow cytometry after 24 h of incubation of the cells with DMSO (control) and gold(III) complexes 1, 5, and 6 (20 μM).

Compound | necrosis [1] | percentage of cells in apoptosis vs control [1] | oxidized protein (carbonyl) levels vs control (Caco-2/TC7 cells) | MIC Cn [2] | effect on cell cycle (cells in G0/G1, S, G2/M phases) vs control (Caco-2 cells)
Cc1ccc(-c2ccccn2)[c]([Au+][S]C(=S)N(C)C)c1.F[P-](F)(F)(F)(F)F [Complex C1, [Au(tpy)(dmdtc)] PF6] | did not die because of necrosis | no significant differences | did not promote oxidative stress damage | 32 µg/mL | did not have a significant impact
[Au(ppy)(dedtc)]PF6 [Complex C4] | – | – | – | 32 µg/mL | –
CCN(CC)C(=S)[S][Au+][c]1cc(C)ccc1-c1ccccn1.F[P-](F)(F)(F)(F)F [Complex C3, [Au(tpy)(dedtc)]PF6] | – | – | – | 2 µg/mL | –
Cc1ccc2[c](c1)[Au-]1([S]C(N(Cc3ccccc3)Cc3ccccc3)=[S+]1)[n+]1ccccc1-2.F[P-](F)(F)(F)(F)F (centres unmarked) [Complex C5, [Au(tpy)(dbdtc)]PF6] | did not die because of necrosis | no significant differences | did not promote oxidative stress damage | 32 µg/mL | did not have a significant impact
F[P-](F)(F)(F)(F)F.S=C([S][Au+][c]1ccccc1-c1ccccn1)N(Cc1ccccc1)Cc1ccccc1 [Complex C6, [Au(ppy)(dbdtc)]PF6] | did not die because of necrosis | no significant differences | did not promote oxidative stress damage | – | did not have a significant impact
CN(C)C(=S)[S][Au+][c]1ccccc1-c1ccccn1.F[P-](F)(F)(F)(F)F [Complex C2, [Au(ppy)(dmdtc)]PF6] | – | – | – | 32 µg/mL | –
